Assay results taken from US6444668B1 (Wyeth, priority 1999, dated 2002).
Several values for one entry are separate records, joined by “and”; a condition that tells them apart may be missing. Identical values can stand only once. Like-named read-outs stand apart in the source and are kept apart here. Blank lines part the entries; values can stand above or below the compound they belong to.

Columns and labels:
[1] = tested on: rat uterine decidualization; test: Rat decidualization assay; format: in vivo
Method: 1. Rat Decidualization Assay
b. Animals (RACUC Protocol #5002)
The animals are treated once daily for seven days.
Uteri are removed and trimmed of fat.
Body weight: Mean total animal body weight (default-kg)
Decidual response: [(D-C)/C]x100%

human PR = target: T1, human PR (Homo sapiens, UniProt P06401); test: PRE-luciferase assay in CV-1 cells; format: cell-based; settings: PR antagonist; CV-1 cells co-transfected with human PR and PRE-luciferase; in the presence of 3 nM progesterone; read-out: hPR CV-1 IC50
T1 construct: expressed in transfected cells; host or cells: CV-1 cells (electroporation)
T1 sequence (P06401 1-933): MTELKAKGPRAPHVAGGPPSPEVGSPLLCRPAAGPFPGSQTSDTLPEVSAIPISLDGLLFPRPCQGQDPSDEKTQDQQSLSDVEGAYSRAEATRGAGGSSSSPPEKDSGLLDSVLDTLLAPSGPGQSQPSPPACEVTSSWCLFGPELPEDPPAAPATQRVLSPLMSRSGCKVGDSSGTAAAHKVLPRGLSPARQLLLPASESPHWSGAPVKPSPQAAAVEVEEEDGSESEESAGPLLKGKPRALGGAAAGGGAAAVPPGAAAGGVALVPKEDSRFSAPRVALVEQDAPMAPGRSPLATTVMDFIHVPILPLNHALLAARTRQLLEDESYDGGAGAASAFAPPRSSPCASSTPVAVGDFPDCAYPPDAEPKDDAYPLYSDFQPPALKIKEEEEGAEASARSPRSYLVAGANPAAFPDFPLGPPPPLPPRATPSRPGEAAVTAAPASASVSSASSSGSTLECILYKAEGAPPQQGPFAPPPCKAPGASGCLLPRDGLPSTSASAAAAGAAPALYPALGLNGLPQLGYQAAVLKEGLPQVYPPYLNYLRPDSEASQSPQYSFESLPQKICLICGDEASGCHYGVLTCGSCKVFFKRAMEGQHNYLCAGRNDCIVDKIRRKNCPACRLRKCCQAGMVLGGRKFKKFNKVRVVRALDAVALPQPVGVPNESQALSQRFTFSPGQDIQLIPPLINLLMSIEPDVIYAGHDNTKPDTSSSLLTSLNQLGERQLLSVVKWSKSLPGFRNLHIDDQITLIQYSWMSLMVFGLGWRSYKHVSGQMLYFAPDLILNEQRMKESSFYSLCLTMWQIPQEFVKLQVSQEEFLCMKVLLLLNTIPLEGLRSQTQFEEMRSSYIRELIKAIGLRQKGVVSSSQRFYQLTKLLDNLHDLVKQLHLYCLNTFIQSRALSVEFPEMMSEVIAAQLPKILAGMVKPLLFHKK
Method: 2. PRE-luciferase Assay in CV-1 to Cells
The object of this assay is to determine a compound's progestational or antiprogestational potency based on its effect on PRE-luciferase reporter activity in CV-1 cells co-transfected with human PR and PRE-luciferase plasmids. The materials methods used in the assay are as follows.
The growth medium was as follows: DMEM (BioWhittaker) containing 10% (v/v) fetal bovine serum (heat inactivated), 0.1 mM MEM non-essential amino acids, 100U/ml penicillin, […] streptomycin, and 2 mM GlutaMax (GIBCO, BRL). The experimental medium was as follows: DMEM (BioWhittaker), phenol red-free, containing 10% (v/v) charcoal-stripped fetal bovine serum (heat-inactivated), 0.1 mM MEM non-essential amino acids, 100U/ml penicillin […] streptomycin, and 2 mM GlutaMax (GIBCO, BRL).
b. Cell Culture, Transfection, Treatment, and Luciferase Assay
Stock CV-1 cells are maintained in growth medium Co-transfection is done using 1.2×10^7 cells, 5 mg pLEM plasmid with hPR-B inserted at Sph1 and BamH1 sites, 10 mg pGL3 plasmid with two PREs upstream of the luciferase sequence, and 50 mg sonicated calf thymus DNA as carrier DNA in […]. […] Luciferase activity is measured using luciferase reagents from Promega.
Each treatment consists of at least 4 replicates. […] EC50 or IC50 values are calculated from the retransformed values.

T47D cells = test: T47D cell proliferation assay (BrdU incorporation); format: cell-based; settings: agonist mode, individual studies, read-out: Estimated EC50, BrdU incorporation
Method: 3. T47D Cell Proliferation Assay
The objective of this assay is the determination of progestational and antiprogestational potency by using a cell proliferation assay in T47D cells. A compound's effect on DNA synthesis in T47D cells is measured.
DMEM:F12 (1:1) (GIBCO, BRL) supplemented with 10% (v/v) fetal bovine serum (not heat-inactivated), 100U/ml penicillin, […] streptomycin, and 2 mM GlutaMax (GIBCO, BRL).
Minimum Essential Medium (MEM) (#51200-038GIBCO, BRL) phenol red-free supplemented with 0.5% charcoal stripped fetal bovine serum, 100U/ml penicillin, 200 mg/ml streptomycin, and 2 mM GlutaMax (GIBCO, BRL).
Stock T47 D cells are maintained in growth medium. For BrdU incorporation assay, cells are plated in 96-well plates (Falcon, Becton Dickinson Labware) at 10,000 cells/well in growth medium. […]
At the end of BrdU labeling, the medium is removed and BrdU incorporation is measured using a cell proliferation ELISA kit (#RPN 250, Amersham Life Science) according to manufacturer's instructions. […] Then 25 μl of 1 M sulfuric acid is added to each well to stop color reaction and optical density is read in a plate reader at 450 nm within 5 min.
Square root-transformed data are used for analysis of variance and nonlinear dose response curve fitting for both agonist and antagonist modes. […] EC50 or IC50 values are calculated from the retransformed values. […]

IC50 (human PR): 30 nM
Structure (SMILES): CC1(C)OC(=O)Nc2ccc(-c3coc(C#N)c3)cc21 [Compound 7, 4-(44-Dimethyl-2-oxo-1,4-dihydro-2H-benzo[d][1,3]oxazin-6-yl)-furan-2-carbonitrile]
Decidualization, percentage inhibition at the dose specified ([1]; dose 3 mg/kg): 75% @ 3

EC50 (T47D cells; Homo sapiens, T47D): 0.019 nM | Estimated EC50 for uterine wet weight (decidual response) ([1]; s.c., individual studies): 0.42 mg/kg and 0.39 mg/kg (2×)
Structure (SMILES): CC(=O)O[C@]1(C(C)=O)CC[C@H]2[C@@H]3C[C@H](C)C4=CC(=O)CC[C@]4(C)[C@H]3CC[C@@]21C [MPA, medroxyprogesterone acetate, reference compound]

EC50 (T47D cells): 0.017 nM and 0.014 nM and 0.019 nM
Structure (SMILES): C[C@H](O)C(=O)[C@@]1(C)CC[C@H]2[C@@H]3CCC4=CC(=O)CCC4=C3CC[C@@]21C [Trimegestone]
